# How the values were obtained:
# randomized patients = assay: Listed Causes of Death from Efficacy Data Set (by randomized treatment); assay type: in vivo; settings: Ticagrelor 90 mg bd N = 9333; Clopidcgrel 75 mg cd N = 9291
# From the text: Causes of death were similar between treatment groups. The most common cause of death was myocardial infarction occurring in about 1% of randomized patients. Sudden death, heart failure, other vascular events and stroke were among the more common causes of death.
# [1] = tested on: individuals undergoing coronary stent implantation for therapy of Acute Coronary Syndrome (ASC); assay: large randomized study, primary end point (death from vascular causes, MI or stroke); assay type: in vivo
smiles,measurement,setting,value
"CCCSc1nc(N[C@@H]2C[C@H]2c2ccc(F)c(F)c2)c2nnn([C@@H]3C[C@H](OCCO)[C@@H](O)[C@H]3O)c2n1 [Ticagrelor, (1S,2S,3R,5S)-3-[7-[(1R,2S)-2-(3,4-Difluorophenyl)cyclopropylamino]-5-(propylthio)-3H-[1,2,3]triazolo[4,5-d]pyrimidin-3-yl]-5-(2-hydroxyethoxy)cyclopentane-1,2-diol]","Cause of death: Aortic dissection, number",randomized patients,1
same,"Cause of death: Aortic dissection, percent",randomized patients,(0.0%)
same,"Cause of death: Arterial embolism, number",randomized patients,0
same,"Cause of death: Arterial embolism, percent",randomized patients,(0.0%)
same,"Cause of death: Cancer, number",randomized patients,14
same,"Cause of death: Cancer, percent",randomized patients,(0.2%)
same,"Cause of death: Cardiac arrhythmia, number",randomized patients,20
same,"Cause of death: Cardiac arrhythmia, percent",randomized patients,(0.2%)
same,"Cause of death: Death from bleeding (not related to trauma), number",randomized patients,13
same,"Cause of death: Death from bleeding (not related to trauma), percent",randomized patients,(0.1%)
same,"Cause of death: Endocarditis, number",randomized patients,0
same,"Cause of death: Endocarditis, percent",randomized patients,(0.0%)
same,"Cause of death: Heart failure, number",randomized patients,51
same,"Cause of death: Heart failure, percent",randomized patients,(0.5%)
same,"Cause of death: Liver failure, number",randomized patients,0
same,"Cause of death: Liver failure, percent",randomized patients,(0.0%)
same,"Cause of death: Multiorgan failure, number",randomized patients,9
same,"Cause of death: Multiorgan failure, percent",randomized patients,(0.1%)
same,"Cause of death: Myocardial infarction, number",randomized patients,89
same,"Cause of death: Myocardial infarction, percent",randomized patients,(1.0%)
same,"Cause of death: Other coronary artery disease, number",randomized patients,4
same,"Cause of death: Other coronary artery disease, percent",randomized patients,(0.0%)
same,"Cause of death: Other non-vascular cause, number",randomized patients,8
same,"Cause of death: Other non-vascular cause, percent",randomized patients,(0.1%)
same,"Cause of death: Other vascular cause, number",randomized patients,44
same,"Cause of death: Other vascular cause, percent",randomized patients,(0.5%)
same,"Cause of death: Pneumonia, number",randomized patients,10
same,"Cause of death: Pneumonia, percent",randomized patients,(0.1%)
same,"Cause of death: Pulmonary embolism, number",randomized patients,3
same,"Cause of death: Pulmonary embolism, percent",randomized patients,(0.0%)
same,"Cause of death: Renal failure, number",randomized patients,2
same,"Cause of death: Renal failure, percent",randomized patients,(0.0%)
same,"Cause of death: Respiratory failure, number",randomized patients,13
same,"Cause of death: Respiratory failure, percent",randomized patients,(0.1%)
same,"Cause of death: Ruptured aortic aneurysm, number",randomized patients,1
same,"Cause of death: Ruptured aortic aneurysm, percent",randomized patients,(0.0%)
same,"Cause of death: Sepsis, number",randomized patients,7
same,"Cause of death: Sepsis, percent",randomized patients,(0.1%)
same,"Cause of death: Stroke, number",randomized patients,20
same,"Cause of death: Stroke, percent",randomized patients,(0.2%)
same,"Cause of death: Sudden death, number",randomized patients,60
same,"Cause of death: Sudden death, percent",randomized patients,(0.6%)
same,"Cause of death: Suicida, number",randomized patients,1
same,"Cause of death: Suicida, percent",randomized patients,(0.0%)
same,"Cause of death: Trauma, number",randomized patients,3
same,"Cause of death: Trauma, percent",randomized patients,(0.0%)
same,"Cause of death: Unknown, number",randomized patients,39
same,"Cause of death: Unknown, percent",randomized patients,(0.4%)
same,"Cause of death: Unstable angina, number",randomized patients,7
same,"Cause of death: Unstable angina, percent",randomized patients,(0.1%)
same,"Cause of death: Valvular disease, number",randomized patients,0
same,"Cause of death: Valvular disease, percent",randomized patients,(0.0%)
same,"Cause of death: Vascular death, sub-classification missing, number",randomized patients,0
same,"Cause of death: Vascular death, sub-classification missing, percent",randomized patients,(0.0%)
COC(=O)[C@H](c1ccccc1Cl)N1CCc2sccc2C1 [clopidogrel],"primary end point: first event of death from vascular causes, myocardial infarction (MI) or stroke, occurred in % of patients",[1],11.7%
same,"Cause of death: Aortic dissection, number",randomized patients,2
same,"Cause of death: Aortic dissection, percent",randomized patients,(0.0%)
same,"Cause of death: Arterial embolism, number",randomized patients,2
same,"Cause of death: Arterial embolism, percent",randomized patients,(0.0%)
same,"Cause of death: Cancer, number",randomized patients,17
same,"Cause of death: Cancer, percent",randomized patients,(0.2%)
same,"Cause of death: Cardiac arrhythmia, number",randomized patients,29
same,"Cause of death: Cardiac arrhythmia, percent",randomized patients,(0.3%)
same,"Cause of death: Death from bleeding (not related to trauma), number",randomized patients,15
same,"Cause of death: Death from bleeding (not related to trauma), percent",randomized patients,(0.2%)
same,"Cause of death: Endocarditis, number",randomized patients,0
same,"Cause of death: Endocarditis, percent",randomized patients,(0.0%)
same,"Cause of death: Heart failure, number",randomized patients,62
same,"Cause of death: Heart failure, percent",randomized patients,(0.7%)
same,"Cause of death: Liver failure, number",randomized patients,1
same,"Cause of death: Liver failure, percent",randomized patients,(0.0%)
same,"Cause of death: Multiorgan failure, number",randomized patients,14
same,"Cause of death: Multiorgan failure, percent",randomized patients,(0.2%)
same,"Cause of death: Myocardial infarction, number",randomized patients,89
same,"Cause of death: Myocardial infarction, percent",randomized patients,(0.9%)
same,"Cause of death: Other coronary artery disease, number",randomized patients,4
same,"Cause of death: Other coronary artery disease, percent",randomized patients,(0.0%)
same,"Cause of death: Other non-vascular cause, number",randomized patients,11
same,"Cause of death: Other non-vascular cause, percent",randomized patients,(0.1%)
same,"Cause of death: Other vascular cause, number",randomized patients,55
same,"Cause of death: Other vascular cause, percent",randomized patients,(0.6%)
same,"Cause of death: Pneumonia, number",randomized patients,8
same,"Cause of death: Pneumonia, percent",randomized patients,(0.1%)
same,"Cause of death: Pulmonary embolism, number",randomized patients,8
same,"Cause of death: Pulmonary embolism, percent",randomized patients,(0.1%)
same,"Cause of death: Renal failure, number",randomized patients,5
same,"Cause of death: Renal failure, percent",randomized patients,(0.1%)
same,"Cause of death: Respiratory failure, number",randomized patients,12
same,"Cause of death: Respiratory failure, percent",randomized patients,(0.1%)
same,"Cause of death: Ruptured aortic aneurysm, number",randomized patients,0
same,"Cause of death: Ruptured aortic aneurysm, percent",randomized patients,(0.0%)
same,"Cause of death: Sepsis, number",randomized patients,23
same,"Cause of death: Sepsis, percent",randomized patients,(0.2%)
same,"Cause of death: Stroke, number",randomized patients,18
same,"Cause of death: Stroke, percent",randomized patients,(0.2%)
same,"Cause of death: Sudden death, number",randomized patients,77
same,"Cause of death: Sudden death, percent",randomized patients,(0.8%)
same,"Cause of death: Suicida, number",randomized patients,1
same,"Cause of death: Suicida, percent",randomized patients,(0.0%)
same,"Cause of death: Trauma, number",randomized patients,1
same,"Cause of death: Trauma, percent",randomized patients,(0.0%)
same,"Cause of death: Unknown, number",randomized patients,58
same,"Cause of death: Unknown, percent",randomized patients,(0.6%)
same,"Cause of death: Unstable angina, number",randomized patients,8
same,"Cause of death: Unstable angina, percent",randomized patients,(0.1%)
same,"Cause of death: Valvular disease, number",randomized patients,1
same,"Cause of death: Valvular disease, percent",randomized patients,(0.0%)
same,"Cause of death: Vascular death, sub-classification missing, number",randomized patients,1
same,"Cause of death: Vascular death, sub-classification missing, percent",randomized patients,(0.0%)

# — patent US20110144049A1, “Treating Cardiac Arrhythmias, Heart Failure, Peripheral Artery Disease and Stroke with Cyclopentyl-Triazolo-Pyrimidine or Derivative Thereof” (priority 2009, published 2011)
